Test results as given in paper PMC10303200 (ACS Central Science, 2023).

Target: T1, PHA-E (Phaseolus vulgaris erythroagglutinin) (Phaseolus vulgaris, UniProt P05088)
T1 construct: purchased Vector Laboratories (Newark, CA, USA)
Type: binding
Conditions: read-out: Kd (Native); pH 6.9

T1 sequence (P05088 22-275 limits assumed): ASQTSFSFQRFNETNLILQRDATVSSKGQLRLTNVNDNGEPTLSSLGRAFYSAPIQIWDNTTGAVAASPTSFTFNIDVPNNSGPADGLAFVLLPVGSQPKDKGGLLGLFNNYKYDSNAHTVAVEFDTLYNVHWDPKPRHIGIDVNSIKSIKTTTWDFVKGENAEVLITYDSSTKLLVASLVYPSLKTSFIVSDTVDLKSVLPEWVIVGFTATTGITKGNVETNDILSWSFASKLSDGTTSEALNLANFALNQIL

SMILES | Kd [µM]
CC(=O)N[C@H]1[C@H](O[C@H]2[C@H](O)[C@@H](NC(C)=O)C(O)O[C@@H]2CO[C@@H]2O[C@@H](C)[C@@H](O)[C@@H](O)[C@@H]2O)O[C@H](CO)[C@@H](O[C@@H]2O[C@H](CO[C@H]3O[C@H](CO)[C@@H](O)[C@H](O)[C@@H]3O[C@@H]3O[C@H](CO)[C@@H](O)[C@H](O)[C@H]3NC(C)=O)[C@@H](O)[C@H](O[C@H]3O[C@H](CO)[C@@H](O)[C@H](O)[C@@H]3O[C@@H]3O[C@H](CO)[C@@H](O)[C@H](O)[C@H]3NC(C)=O)[C@@H]2O)[C@@H]1O (stereo partly drawn) [HexNAc4Hex3Fuc1] | 18.6 ± 3.5
CC(=O)N[C@H]1[C@H](O[C@H]2[C@H](O)[C@@H](NC(C)=O)C(O)O[C@@H]2CO[C@@H]2O[C@@H](C)[C@@H](O)[C@@H](O)[C@@H]2O)O[C@H](CO)[C@@H](O[C@@H]2O[C@H](CO[C@H]3O[C@H](CO)[C@@H](O)[C@H](O)[C@@H]3O[C@@H]3O[C@H](CO)[C@@H](O[C@@H]4O[C@H](CO)[C@H](O)[C@H](O)[C@H]4O)[C@H](O)[C@H]3NC(C)=O)[C@@H](O)[C@H](O[C@H]3O[C@H](CO)[C@@H](O)[C@H](O)[C@@H]3O[C@@H]3O[C@H](CO)[C@@H](O[C@@H]4O[C@H](CO)[C@H](O)[C@H](O)[C@H]4O)[C@H](O)[C@H]3NC(C)=O)[C@@H]2O)[C@@H]1O (stereo partly drawn) [HexNAc4Hex5Fuc1] | 12.3 ± 3.6
CC(=O)N[C@H]1[C@H](O[C@H]2[C@H](O)[C@@H](NC(C)=O)C(O)O[C@@H]2CO)O[C@H](CO)[C@@H](O[C@@H]2O[C@H](CO[C@H]3O[C@H](CO)[C@@H](O)[C@H](O)[C@@H]3O[C@@H]3O[C@H](CO)[C@@H](O[C@@H]4O[C@H](CO)[C@H](O)[C@H](O)[C@H]4O)[C@H](O)[C@H]3NC(C)=O)[C@@H](O)[C@H](O[C@H]3O[C@H](CO)[C@@H](O)[C@H](O)[C@@H]3O[C@@H]3O[C@H](CO)[C@@H](O[C@@H]4O[C@H](CO)[C@H](O)[C@H](O)[C@H]4O)[C@H](O)[C@H]3NC(C)=O)[C@@H]2O)[C@@H]1O (stereo partly drawn) [HexNAc4Hex5] | 13.1 ± 0.8
